These results are taken from US20250281499A1, “FUSED AMINO PYRIMIDINE COMPOUNDS FOR TREATMENT OF NEUROPATHIC AND NEURO-INFLAMMATORY PAIN” (Ovid Therapeutics Inc., priority 2024, published 2025).

Each structure is given as a SMILES string.

In one assay the test system is acute brain slices. The assay can be described thus: Late recurrent discharges in acute brain slices exposed to 0-Mg.
The target of the next assay is T1, KCC3 (Homo sapiens, UniProt Q9UHW9).
T1 construct: expressed in transfected cells; host or cells: HEK-293
T1 sequence (Q9UHW9 1-1150): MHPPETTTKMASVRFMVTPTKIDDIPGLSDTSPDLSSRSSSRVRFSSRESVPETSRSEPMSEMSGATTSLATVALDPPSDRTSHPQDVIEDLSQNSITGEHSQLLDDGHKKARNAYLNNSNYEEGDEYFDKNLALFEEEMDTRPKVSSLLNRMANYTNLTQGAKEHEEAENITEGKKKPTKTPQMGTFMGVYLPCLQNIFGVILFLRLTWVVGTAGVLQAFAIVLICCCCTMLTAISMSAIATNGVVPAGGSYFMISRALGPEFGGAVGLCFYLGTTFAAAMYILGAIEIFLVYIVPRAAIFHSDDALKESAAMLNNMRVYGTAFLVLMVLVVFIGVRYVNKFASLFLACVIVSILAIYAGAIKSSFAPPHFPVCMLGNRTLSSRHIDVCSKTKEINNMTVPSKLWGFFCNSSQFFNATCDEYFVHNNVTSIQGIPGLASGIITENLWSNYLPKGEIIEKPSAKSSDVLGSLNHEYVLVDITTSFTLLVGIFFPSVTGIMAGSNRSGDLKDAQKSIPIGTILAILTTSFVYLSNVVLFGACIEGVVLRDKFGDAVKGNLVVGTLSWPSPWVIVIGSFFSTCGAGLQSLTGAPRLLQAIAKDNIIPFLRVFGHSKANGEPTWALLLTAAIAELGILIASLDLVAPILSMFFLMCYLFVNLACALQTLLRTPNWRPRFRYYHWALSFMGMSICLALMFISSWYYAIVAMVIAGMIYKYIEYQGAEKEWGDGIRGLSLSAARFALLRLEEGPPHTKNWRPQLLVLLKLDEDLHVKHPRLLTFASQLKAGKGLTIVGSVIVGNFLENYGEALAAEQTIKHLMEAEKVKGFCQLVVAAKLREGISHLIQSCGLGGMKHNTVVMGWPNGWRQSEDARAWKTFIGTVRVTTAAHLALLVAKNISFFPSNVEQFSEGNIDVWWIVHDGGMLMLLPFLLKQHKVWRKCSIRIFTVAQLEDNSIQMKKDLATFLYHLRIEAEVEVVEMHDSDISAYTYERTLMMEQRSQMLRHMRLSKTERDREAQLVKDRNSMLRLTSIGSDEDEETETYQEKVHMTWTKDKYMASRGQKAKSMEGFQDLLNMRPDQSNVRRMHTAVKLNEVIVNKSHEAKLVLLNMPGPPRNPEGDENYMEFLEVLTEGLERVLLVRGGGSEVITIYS
As to the kind of experiment: Tl+ flux assay, HEK-293 cells expressing KCC3. The settings on record: read-out: concentration at which effects on KCC3 were seen (EC50, FIG. 1G). It is filed as cell-based. How it is done:
FLIPR TI Flux assay. HEK-293 cells were washed with HBSS, and then incubated with loading buffer containing TI sensitive fluorescent dye (https://www.moleculardevices.com), 20 μM bumetanide 20 μM ouabain and 2.5 mM probenecid for 1 h at room temperature (RT) under control conditions or with drugs in the dark using a FlexStation 3 microplate reader (Molecular Devices) and imaged […] for 30 min. Stimulus buffer was added containing 5 mM K^+/0.5 mM Tl^+ and cells were imaged every 1.5 over a 190 second time course The initial rate Tl^+ uptake (Relative Fluorescence Units (RFU) per second) was determined following addition of the stimulus buffer as outlined previously (Conway et al., 2017, supra) (Lee et al., 2022, supra).
Several studies have shown that the activity and plasma membrane accumulation of KCC2 is potentiated via phosphorylation of S940, a process mediated by the activity of protein kinase C and protein phosphatase 1 (Lee et al, 2011, supra; Lee et al., J Biol Chem 282, 29777-29784 (2007); Moore et al., Proc. Natl. Acad. Sci. U.S.A 115, 10166-10171 (2018); Moore et al., Trends Neurosci. 40, 555-571 (2017); Silayeva et al., Proc. Natl. Acad. Sci. U.S.A. 112, 3523-3528 (2015)). […] Compared to KCC2, effects on KCC3, KCC4, and NKCC1 were only seen at concentrations more than 35-fold that of KCC2 (>100 μM) (FIG. 1G).

Regarding `C[C@@H]1CN(c2nc3c(c(Nc4ccc(C5CCCCC5)cc4)n2)COC3)CCO1` [Compound A, (R)—N-(4-cyclohexylphenyl)-2-(2-methylmorpholino)-5,7-dihydrofuro[3,4-d]pyrimidin-4-amine], in the assay with acute brain slices, the “development of late recurrent discharges (LRDs)” value is given as “reduced”. For the same molecule, on KCC3, the EC50 was greater than 100 µM.
